Our source for the relative activity and Km values is article PMC10636135, “Computational design of highly efficient thermostable MHET hydrolases and dual enzyme system for PET recycling” (Communications Biology, 2023).

Assay [1] deals with T1, 1EVQ (thermostable scaffold) (Alicyclobacillus acidocaldarius, UniProt Q7SIG1).
T1 construct: synthesized codon-optimized gene, pET-22b(+), E. coli BL21(DE3); named only by PDB code
The assay is described as follows: relative MHET hydrolysis activity. The format is biochemical. The following applies: 4.8 mM MHET, 0.25 μM enzyme, 50 mM sodium phosphate, pH 7.5, 50 °C, 10 min.

Assay [2] relates to T2, KL36F (fusion of KL-MHETase and FAST-PETase).
T2 construct: gene est; order judged from name; FAST-PETase moiety also hydrolyses MHET weakly; with Poly(ethylene terephthalate) hydrolase
Description: initial rates, TPA by HPLC, Michaelis-Menten fit. Format: biochemical, Geobacillus stearothermophilus. The conditions noted are these: 50 mM sodium phosphate, pH 7.5, 50 °C.

For `O=C(O)c1ccc(C(=O)OCCO)cc1` [MHET], in assay [1], the relative activity is 1EVQ and 1TQH, exhibited apparent activity with regard to MHET hydrolysis. Further, the Km (usually the concentration of substrate that gives half-maximal velocity) in assay [2] was found to be 4.52 ± 0.67 mM.
